Legend:
Format in all cases: functional, cell-based
OATP8 (OATP1B3, SLCO1B3) = target: T1, OATP8 (OATP1B3, SLCO1B3) (Homo sapiens, UniProt Q9NPD5); assay: (§1) TP_TRANSPORTER: uptake in OATP8-expressing HEK293 cells; settings: HEK293 cells expressing OATP8
T1 sequence (Q9NPD5 whole entry): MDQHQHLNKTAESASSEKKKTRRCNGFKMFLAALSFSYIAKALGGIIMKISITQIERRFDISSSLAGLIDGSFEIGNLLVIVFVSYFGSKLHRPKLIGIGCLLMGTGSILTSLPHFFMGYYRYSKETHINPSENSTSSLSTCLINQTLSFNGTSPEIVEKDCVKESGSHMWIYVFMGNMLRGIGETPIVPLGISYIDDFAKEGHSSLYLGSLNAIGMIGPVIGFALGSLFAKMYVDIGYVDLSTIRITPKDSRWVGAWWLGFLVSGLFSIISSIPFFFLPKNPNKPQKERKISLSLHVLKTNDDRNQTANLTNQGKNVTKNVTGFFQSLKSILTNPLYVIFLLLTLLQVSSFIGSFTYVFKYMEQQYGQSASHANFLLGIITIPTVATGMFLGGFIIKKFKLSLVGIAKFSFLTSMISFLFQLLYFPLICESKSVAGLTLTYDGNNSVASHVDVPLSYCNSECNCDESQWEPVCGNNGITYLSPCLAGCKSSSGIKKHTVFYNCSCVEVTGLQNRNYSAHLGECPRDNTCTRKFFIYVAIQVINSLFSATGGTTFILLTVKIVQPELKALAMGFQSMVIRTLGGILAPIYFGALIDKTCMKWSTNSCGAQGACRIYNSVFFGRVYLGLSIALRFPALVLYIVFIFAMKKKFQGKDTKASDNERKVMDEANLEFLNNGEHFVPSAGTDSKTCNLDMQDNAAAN

[1] = target: T2, Solute carrier organic anion transporter family member 1B3 (Homo sapiens, UniProt Q9NPD5); assay: as §1; settings: hek293
T2 sequence (Q9NPD5 whole entry): T1 sequence (Q9NPD5 whole entry)

[2] = target: T3, Solute carrier organic anion transporter family member 1B1 (Homo sapiens, UniProt Q9Y6L6); assay: (§2) TP_TRANSPORTER: uptake in OATP-C-expressing HEK293 cells
T3 sequence (Q9Y6L6 whole entry): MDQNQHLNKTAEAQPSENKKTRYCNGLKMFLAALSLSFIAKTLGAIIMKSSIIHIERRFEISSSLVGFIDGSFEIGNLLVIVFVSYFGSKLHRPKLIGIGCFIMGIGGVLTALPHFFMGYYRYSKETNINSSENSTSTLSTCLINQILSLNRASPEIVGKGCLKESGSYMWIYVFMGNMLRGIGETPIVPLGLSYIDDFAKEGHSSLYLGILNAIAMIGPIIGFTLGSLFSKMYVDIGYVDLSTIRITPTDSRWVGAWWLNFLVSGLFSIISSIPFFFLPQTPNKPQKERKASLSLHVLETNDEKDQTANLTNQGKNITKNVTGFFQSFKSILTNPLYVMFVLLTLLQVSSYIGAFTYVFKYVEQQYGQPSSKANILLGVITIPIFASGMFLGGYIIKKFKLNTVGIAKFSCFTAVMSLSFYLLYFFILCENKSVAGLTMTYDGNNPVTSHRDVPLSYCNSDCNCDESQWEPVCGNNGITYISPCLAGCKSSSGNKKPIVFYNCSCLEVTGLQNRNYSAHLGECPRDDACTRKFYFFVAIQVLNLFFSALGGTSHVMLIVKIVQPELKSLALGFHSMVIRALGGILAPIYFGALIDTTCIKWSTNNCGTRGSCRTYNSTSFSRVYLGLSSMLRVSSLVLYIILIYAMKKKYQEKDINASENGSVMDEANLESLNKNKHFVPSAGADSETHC

[3] = target: T2, Solute carrier organic anion transporter family member 1B3; assay: TP_TRANSPORTER: inhibition of E217betaG uptake (E217betaG: 2 uM, ICG: 10 uM) in OATP8-expressing HEK293 cells; settings: hek293, 10 µM
[4] = target: T3, Solute carrier organic anion transporter family member 1B1; assay: TP_TRANSPORTER: inhibition of E217betaG uptake (E217betaG: 2 uM, ICG: 10 uM) in OATP-C-expressing HEK293 cells; settings: hek293, 10 µM
[5] = target: T2, Solute carrier organic anion transporter family member 1B3; assay: TP_TRANSPORTER: inhibition of E217betaG uptake (E217betaG: 2 uM, Rifampicin: 75 uM) in OATP8-expressing HEK293 cells; settings: hek293, 75 µM
[6] = target: T3, Solute carrier organic anion transporter family member 1B1; assay: TP_TRANSPORTER: inhibition of E217betaG uptake (E217betaG: 2 uM, Rifampicin: 75 uM) in OATP-C-expressing HEK293 cells; settings: hek293, 75 µM
[7] = target: T2, Solute carrier organic anion transporter family member 1B3; assay: TP_TRANSPORTER: inhibition of E217betaG uptake (E217betaG: 2 uM, Rifamycin SV: 50 uM) in OATP8-expressing HEK293 cells; settings: hek293, 50 µM
[8] = target: T3, Solute carrier organic anion transporter family member 1B1; assay: TP_TRANSPORTER: inhibition of E217betaG uptake (E217betaG: 2 uM, Rifamycin SV: 50 uM) in OATP-C-expressing HEK293 cells; settings: hek293, 50 µM
[9] = target: T3, Solute carrier organic anion transporter family member 1B1; assay: TP_TRANSPORTER: inhibition of Bilirubin uptake (Bilirubin: 10 uM, BSP: 5 uM) in OATP-C-expressing HEK293 cells; settings: hek293, 5 µM
[10] = substrate: C=CC1=C(C)/C(=C/c2[nH]c(Cc3[nH]c(/C=C4\NC(=O)C(C)=C4C=C)c(C)c3CCC(=O)O[C@@H]3OC(C(=O)O)[C@@H](O)C(O)C3O)c(CCC(=O)O)c2C)NC1=O; assay: as §2
[11] = substrate: C=CC1=C(C)/C(=C/c2[nH]c(Cc3[nH]c(/C=C4\NC(=O)C(C)=C4C=C)c(C)c3CCC(=O)O[C@@H]3O[C@@H](C(=O)O)[C@H](O)[C@@H](O)[C@@H]3O)c(CCC(=O)O[C@@H]3O[C@H](C(=O)O)[C@H](O)[C@H](O)[C@@H]3O)c2C)NC1=O; assay: as §2
[12] = substrate: C[C@]12CC[C@@H]3c4ccc(OS(=O)(=O)O)cc4CC[C@H]3[C@@H]1CCC2=O; assay: as §2
[13] = substrate: O=C1OC(c2ccc(O)c(S(=O)(=O)O)c2)(c2ccc(O)c(S(=O)(=O)O)c2)c2c(Br)c(Br)c(Br)c(Br)c21; assay: as §2
[14] = substrate: [H][C@@]12CC=C3C[C@@H](OS(=O)(=O)O)CC[C@]3(C)[C@@]1([H])CC[C@]1(C)C(=O)CC[C@@]21[H]; assay: as §2

C=CC1=C(C)/C(=C/c2[nH]c(Cc3[nH]c(/C=C4\NC(=O)C(C)=C4C=C)c(C)c3CCC(=O)O[C@@H]3OC(C(=O)O)[C@@H](O)C(O)C3O)c(CCC(=O)O)c2C)NC1=O (some centres not stated) [BILIRUBIN MONOGLUCURONIDE]
Km (OATP8 (OATP1B3, SLCO1B3)): 0.5 µM

C=CC1=C(C)/C(=C/c2[nH]c(Cc3[nH]c(/C=C4\NC(=O)C(C)=C4C=C)c(C)c3CCC(=O)O[C@@H]3O[C@@H](C(=O)O)[C@H](O)[C@@H](O)[C@@H]3O)c(CCC(=O)O[C@@H]3O[C@H](C(=O)O)[C@H](O)[C@H](O)[C@@H]3O)c2C)NC1=O
Activity [1]: is not a substrate [-]

C=CC1=C(C)/C(=C/c2[nH]c(Cc3[nH]c(/C=C4\NC(=O)C(C)=C4C=C)c(C)c3CCC(=O)O)c(CCC(=O)O)c2C)NC1=O [BILIRUBIN]
Activity [2]: substrate [+]

CC1(C)C(/C=C/C=C/C=C/C=C2/N(CCCCS(=O)(=O)[O-])c3ccc4ccccc4c3C2(C)C)=[N+](CCCCS(=O)(=O)[O-])c2ccc3ccccc3c21.[Na+] [INDOCYANINE GREEN]
Activity [3]: is not an inhibitor [-] | Activity [4]: inhibitor [(at a rough estimate) 5 % of control]

CO[C@H]1/C=C/O[C@@]2(C)Oc3c(C)c(O)c4c(O)c(c(/C=N/N5CCN(C)CC5)c(O)c4c3C2=O)NC(=O)/C(C)=C\C=C\[C@H](C)[C@H](O)[C@@H](C)[C@@H](O)[C@@H](C)[C@H](OC(C)=O)[C@@H]1C [RIFAMPIN]
Activity [5]: inhibitor [(at a rough estimate) 10 % of control] | Activity [6]: inhibitor [(at a rough estimate) 20 % of control]

CO[C@H]1/C=C/O[C@@]2(C)Oc3c(C)c(O)c4c(O)c(cc(O)c4c3C2=O)NC(=O)/C(C)=C\C=C\[C@H](C)[C@H](O)[C@@H](C)[C@@H](O)[C@@H](C)[C@H](OC(C)=O)[C@@H]1C [RIFAMYCIN]
Activity [7]: inhibitor [(at a rough estimate) 35 % of control] | Activity [8]: inhibitor [(at a rough estimate) 20 % of control]

C[C@]12CC[C@H](OS(=O)(=O)O)CC1=CC[C@@H]1[C@@H]2CC[C@]2(C)C(=O)CC[C@@H]12 [PRASTERONE SULFURIC ACID]
Km (OATP8 (OATP1B3, SLCO1B3)): > 30 µM

C[C@]12CC[C@@H]3c4ccc(OS(=O)(=O)O)cc4CC[C@H]3[C@@H]1CCC2=O [ESTRONE SULFURIC ACID]
Activity [1]: is not a substrate [-]

O=C1OC(c2ccc(O)c(S(=O)(=O)[O-])c2)(c2ccc(O)c(S(=O)(=O)[O-])c2)c2c(Br)c(Br)c(Br)c(Br)c21.[Na+].[Na+] [SULFOBROMOPHTHALEIN SODIUM]
Activity [9]: inhibitor [(at a rough estimate) 15 % of control]

B1: Solute carrier organic anion transporter family member 1B1 (Homo sapiens) (protein)
chain: T3 sequence (Q9Y6L6 whole entry)
Km [10]: 0.1 µM | Km [11]: 0.28 µM | Km [12]: 12.5 µM | Km [13]: 0.14 µM | Km [14]: 21.5 µM

From ChEMBL document CHEMBL2074120, “Hepatic uptake of bilirubin and its conjugates by the human organic anion transporter SLC21A6” (J Biol Chem, 2001)
